According to BindingDB's records for doi:10.1016/j.bmcl.2006.01.126 (Amgen, 2006):

Experiment: Inhibition of TARC-mediated CEM cell migration

IC50 [µM]	SMILES
0.53	c1ccc2c(Nc3nc(CN(CC4CCCCC4)CC4CCCCC4)cs3)cccc2c1 [4-((bis(cyclohexylmethyl)amino)methyl)-N-(naphthalen-1-yl)thiazol-2-amine]
6.4	Cc1csc(Nc2cccc3ccccc23)n1 [4-methyl-N-(naphthalen-1-yl)thiazol-2-amine]
